Assays:
[1] = system: human pancreatic cancer cell line MiaPaCa2 (ATCC CRL-1420); test: Cell growth assay (CellTiterGlo, 72 hours); format: cell-based; settings: MIA PaCa-2, MiaPaCa2 cells, 72 hours, read-out: IC50 MiaPaCa
Method in brief: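 MiaPaCa2 cells (10^3/well) seeded in supplemented DMEM overnight, then exposed in quadruplicate to compound at 100 down to 0.1 μM for 72 h at 37° C. Growth read by CellTiterGlo luminescence, medium-only background subtracted, normalised to untreated cells; IC50 = concentration reducing growth to 50%.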

MNK1 = target: T1, MNK1 (Homo sapiens, UniProt Q9BUB5); test: MNK inhibition assay (Z-Lyte kinase assay, Ser/Thr 7 peptide); format: biochemical; settings: for IC50: recombinant GST-MNK1, 3 hours at 31° C.; for inhibition at 1 µM: read-out: Inhibition of MNK1 activity at indicated concentration
T1 construct: purchased Life Technologies or Carna Biosciences PV6023 or 02-145; host or cells: baculovirus infected insect cells
Method in brief: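 Recombinant GST-MNK1 from baculovirus-infected insect cells, Z-Lyte Ser/Thr 7 peptide, enzyme set for ~30% phosphorylation in buffer-only wells; 3 hours at 31° C. Compounds at 50–10000 nM (potent ones down to 0.5 nM), at least duplicate. IC50 from % substrate phosphorylation versus buffer-only wells, fluorescence read-out.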

T1 sequence (Q9BUB5 whole entry): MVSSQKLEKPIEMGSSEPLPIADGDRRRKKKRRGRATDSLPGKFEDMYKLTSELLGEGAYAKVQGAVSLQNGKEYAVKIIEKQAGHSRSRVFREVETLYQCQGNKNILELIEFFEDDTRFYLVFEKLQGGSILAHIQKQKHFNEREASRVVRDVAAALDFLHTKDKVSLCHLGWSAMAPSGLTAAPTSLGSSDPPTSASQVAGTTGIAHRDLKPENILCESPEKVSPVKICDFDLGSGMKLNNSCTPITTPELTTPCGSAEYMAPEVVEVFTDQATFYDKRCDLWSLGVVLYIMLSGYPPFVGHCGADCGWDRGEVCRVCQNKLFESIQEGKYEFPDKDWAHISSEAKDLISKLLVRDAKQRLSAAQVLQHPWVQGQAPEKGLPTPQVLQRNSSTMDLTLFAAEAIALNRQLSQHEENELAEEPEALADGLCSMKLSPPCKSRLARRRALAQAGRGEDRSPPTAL

N[C@H]1CC[C@H](Nc2cc3c(-c4cc5ccccc5o4)cncc3cc2Cl)CC1 [Example 140, N4-[4-(Benzofuran-2-yl)-7-chloro-6-isoquinolyl]cyclohexane-1,4-diamine]
IC50 [1]: 1870 nM | IC50 (MNK1): 10 nM

COc1cc2cncc(-c3cc4ccccc4o3)c2cc1N[C@H]1CC[C@H](N)CC1 [Example 141, N4-[4-(Benzofuran-2-yl)-7-methoxy-6-isoquinolyl]cyclohexane-1,4-diamine]
IC50 [1]: 2260 nM | IC50 (MNK1): 187 nM

N[C@H]1CC[C@H](Nc2cc(Cl)c3cncc(-c4cc5ccccc5o4)c3c2)CC1 [Example 142, N4-[4-(Benzofuran-2-yl)-8-chloro-6-isoquinolyl]cyclohexane-1,4-diamine]
IC50 [1]: 3790 nM | IC50 (MNK1): 180 nM

COc1cc(N[C@H]2CC[C@H](N)CC2)cc2c(-c3cc4ccccc4o3)cncc12 [Example 143, N4-[4-(benzofuran-2-yl)-8-methoxy-6-isoquinolyl]cyclohexane-1,4-diamine]
IC50 [1]: 1960 nM | IC50 (MNK1): 474 nM

NC1CCN(Cc2ccc3nncc(-c4cc5ccccc5o4)c3c2)CC1 [Example 144, 1-[[4-(Benzofuran-2-yl)cinnolin-6-yl]methyl]piperidin-4-amine]
IC50 [1]: 4610 nM | IC50 (MNK1): 1890 nM

NC1CCN(Cc2ccc3nncc(-c4ccc(Cl)cc4)c3c2)CC1 [Example 145, 1-[[4-(4-Chlorophenyl)cinnolin-6-yl]methyl]piperidin-4-amine]
IC50 [1]: 29000 nM | IC50 (MNK1): 2720 nM

c1ccc2oc(-c3cncc4ccc(OCc5ccncc5)cc34)cc2c1 [Example 146, 4-(Benzofuran-2-yl)-6-(4-pyridylmethoxy)isoquinoline]
IC50 [1]: 20000 nM | IC50 (MNK1): 268 nM

c1ccc2oc(-c3cncc4ccc(NCc5ccncc5)cc34)cc2c1 [Example 147, 4-(Benzofuran-2-yl)-N-(4-pyridylmethyl)isoquinolin-6-amine]
IC50 [1]: 7140 nM | IC50 (MNK1): 92 nM

N[C@H]1CC[C@H](Nc2ccc3cncc(-c4cc5ccccc5o4)c3c2)CC1 [Example 148, 4-(Benzofuran-2-yl)-N-(4-(trans)aminocyclohexyl)isoquinolin-6-amine]
IC50 [1]: 1740 nM | IC50 (MNK1): 58 nM

Nc1ncc(-c2cc3ccccc3o2)c2cc(CNc3ccncc3)ccc12 [Example 151, 4-(Benzofuran-2-yl)-6-[(4-pyridylamino)methyl]isoquinolin-1-amine]
IC50 [1]: 2510 nM | IC50 (MNK1): 11 nM

Nc1cc[n+](Cc2ccc3c(N)ncc(-c4cc5ccccc5o4)c3c2)cc1 [Example 152, 6-[(4-Aminopyridin-1-ium-1-yl)methyl]-4-(benzofuran-2-yl)isoquinolin-1-amine]
IC50 [1]: 1560 nM | IC50 (MNK1): 17 nM

Nc1ncc(-c2cc3ccccc3o2)c2cc(CN3CCC(N)CC3)ccc12 [Example 153, 6-[(4-Amino-1-piperidyl)methyl]-4-(benzofuran-2-yl)isoquinolin-1-amine]
IC50 [1]: 3500 nM | IC50 (MNK1): 131 nM

N[C@H]1CC[C@H](C(=O)Nc2ccc3cncc(-c4cc5ccccc5o4)c3c2)CC1 [Example 156, trans-4-Amino-N-[4-(benzofuran-2-yl)-6-isoquinolyl]cyclohexanecarboxamide]
IC50 [1]: 10400 nM | IC50 (MNK1): 371 nM

N[C@H]1CC[C@@H](C(=O)Nc2ccc3cncc(-c4cc5ccccc5o4)c3c2)CC1 [Example 157]
IC50 [1]: 7880 nM | IC50 (MNK1): 50 nM

N[C@H]1CC[C@H](NC(=O)c2ccc3cncc(-c4cc5ccccc5o4)c3c2)CC1 [Example 160, Trans-N-(4-aminocyclohexyl)-4-(benzofuran-2-yl)isoquinoline-6-carboxamide]
IC50 [1]: 12200 nM | IC50 (MNK1): 284 nM

N[C@H]1CC[C@@H](NC(=O)c2ccc3cncc(-c4cc5ccccc5o4)c3c2)CC1 [Example 161]
IC50 [1]: 24000 nM | IC50 (MNK1): 465 nM

Nc1ncc2ccc(CN3CCC(N)CC3)cc2c1-c1ccccc1 [Example 162, 6-[(4-Amino-1-piperidyl)methyl]-4-phenyl-isoquinolin-3-amine]
IC50 [1]: 9880 nM | inhibition at 1 µM (MNK1): 54%

Nc1ncc2ccc(CN3CCC(N)CC3)cc2c1-c1ccc(O)cc1 [Example 163]
IC50 [1]: 13800 nM | IC50 (MNK1): 142 nM

Nc1ncc2ccc(CN3CCC(N)CC3)cc2c1-c1cc2ccccc2o1 [Example 164, 6-[(4-Amino-1-piperidyl)methyl]-4-(benzofuran-2-yl)isoquinolin-3-amine]
IC50 [1]: 6620 nM | IC50 (MNK1): 847 nM

Nc1ncc2ccc(CNc3ccncc3)cc2c1-c1cc2ccccc2o1 [Example 165, 4-(Benzofuran-2-yl)-6-[(4-pyridylamino)methyl]isoquinolin-3-amine]
IC50 [1]: 5700 nM | IC50 (MNK1): 6 nM

Cc1ccc(-c2cncc3ccc(CN4CCC(N)CC4)cc23)o1 [Example 167, 1-[[4-(5-methyl-2-furyl)-6-isoquinolyl]methyl]piperidin-4-amine]
IC50 [1]: 800 nM | IC50 (MNK1): 1040 nM

NC1CCN(Cc2ccc3cncc(-c4ccc5[nH]ccc5c4)c3c2)CC1 [Example 168]
IC50 [1]: 12400 nM | IC50 (MNK1): 760 nM

NC1CCN(Cc2ccc3cncc(-c4ccc5cc[nH]c5c4)c3c2)CC1 [Example 169]
IC50 [1]: 10300 nM | IC50 (MNK1): 247 nM

NC1CCN(Cc2ccc3cncc(-c4cc5ccccc5s4)c3c2)CC1 [Example 170]
IC50 [1]: 2600 nM | IC50 (MNK1): 361 nM

NC1CCN(Cc2ccc3cncc(-c4ccc(Cl)s4)c3c2)CC1 [Example 171]
IC50 [1]: 11200 nM | IC50 (MNK1): 189 nM

NC1CCN(Cc2ccc3cncc(-c4ccc5occc5c4)c3c2)CC1 [Example 172]
IC50 [1]: 11900 nM | IC50 (MNK1): 270 nM

NC1CCN(Cc2ccc3cncc(-c4cnc5ccccc5c4)c3c2)CC1 [Example 173]
IC50 [1]: 9870 nM | IC50 (MNK1): 958 nM

NC1CCN(Cc2ccc3cncc(-c4ccc5ccccc5c4)c3c2)CC1 [Example 174]
IC50 [1]: 4700 nM | IC50 (MNK1): 465 nM

COc1ccc2oc(-c3cncc4ccc(CN5CCC(N)CC5)cc34)cc2c1 [Example 175]
IC50 [1]: 7720 nM | IC50 (MNK1): 1070 nM

NC1CCN(Cc2ccc3cncc(-c4ccc5ccccc5n4)c3c2)CC1 [Example 176, 1-[[4-(2-Quinolyl)-6-isoquinolyl]methyl]piperidin-4-amine]
IC50 [1]: 29000 nM | IC50 (MNK1): 3700 nM

NC1CCN(Cc2ccc3cncc(-c4ccco4)c3c2)CC1 [Example 177, 1-[[4-(2-Furyl)-6-isoquinolyl]methyl]piperidin-4-amine]
IC50 [1]: 3650 nM | IC50 (MNK1): 125 nM

NC1CCN(Cc2ccc3cncc(-c4cccs4)c3c2)CC1 [Example 178]
IC50 [1]: 4980 nM | IC50 (MNK1): 154 nM

NC1CCN(Cc2ccc3cncc(-c4ccoc4)c3c2)CC1 [Example 179]
IC50 [1]: 4970 nM | IC50 (MNK1): 276 nM

NC1CCN(Cc2ccc3cncc(-c4ccsc4)c3c2)CC1 [Example 180]
IC50 [1]: 12100 nM | IC50 (MNK1): 177 nM

NC1CCN(Cc2ccc3cncc(-c4ccc(CO)cc4)c3c2)CC1 [Example 181]
IC50 [1]: 22800 nM | IC50 (MNK1): 522 nM

NC1CCN(Cc2ccc3cncc(-c4cccc(CO)c4)c3c2)CC1 [Example 182]
IC50 [1]: 38000 nM | IC50 (MNK1): 1180 nM

NCc1ccc(-c2cncc3ccc(CN4CCC(N)CC4)cc23)cc1 [Example 183]
IC50 [1]: 8640 nM | IC50 (MNK1): 306 nM

NCc1cccc(-c2cncc3ccc(CN4CCC(N)CC4)cc23)c1 [Example 184]
IC50 [1]: 7890 nM | inhibition at 1 µM (MNK1): 35%

CC(=O)c1ccc(-c2cncc3ccc(CN4CCC(N)CC4)cc23)cc1 [Example 185]
IC50 [1]: 22000 nM | IC50 (MNK1): 849 nM

CC(=O)c1cccc(-c2cncc3ccc(CN4CCC(N)CC4)cc23)c1 [Example 186]
IC50 [1]: 24000 nM | IC50 (MNK1): 1240 nM

NC1CCN(Cc2ccc3cncc(-c4cccc(O)c4)c3c2)CC1 [Example 187]
IC50 [1]: 13000 nM | IC50 (MNK1): 266 nM

NC1CCN(Cc2ccc3cncc(-c4cc5cc(Cl)ccc5o4)c3c2)CC1 [Example 188]
IC50 [1]: 5630 nM | IC50 (MNK1): 340 nM

c1ccc2oc(-c3cncc4ccc(Cn5ccc6cnccc65)cc34)cc2c1 [Example 189, 4-(Benzofuran-2-yl)-6-(pyrrolo[3,2-c]pyridin-1-ylmethyl)isoquinoline]
IC50 [1]: 8390 nM | IC50 (MNK1): 11 nM

Nc1cc(CNc2ccc3cncc(-c4cc5ccccc5o4)c3c2)ccn1 [Example 190, N-[(2-Amino-4-pyridyl)methyl]-4-(benzofuran-2-yl)isoquinolin-6-amine]
IC50 [1]: 7440 nM | IC50 (MNK1): 87 nM

c1ccc2oc(-c3cncc4ccc(Cn5ccc6ccncc65)cc34)cc2c1 [Example 191, 4-(Benzofuran-2-yl)-6-(pryrrolo[2,3-c]pyridin-1-ylmethyl)isoquinoline]
IC50 [1]: 19000 nM | IC50 (MNK1): 437 nM

Nc1ccc2c(ccn2Cc2ccc3cncc(-c4cc5ccccc5o4)c3c2)c1 [Example 192, 1-[[4-(Benzofuran-2-yl)-6-isoquinolyl]methyl]indol-5-amine]
IC50 [1]: 26000 nM | IC50 (MNK1): 1550 nM

NC1CCN(Cc2ccc3cncc(-c4ccc5cnccc5c4)c3c2)CC1 [Example 193]
IC50 [1]: 11500 nM | IC50 (MNK1): 1050 nM

NC1CCN(Cc2ccc3cncc(-c4ccc5ccncc5c4)c3c2)CC1 [Example 194]
IC50 [1]: 16300 nM | IC50 (MNK1): 797 nM

NC1CCN(Cc2ccc3cncc(-c4ccc5ncccc5c4)c3c2)CC1 [Example 195]
IC50 [1]: 16200 nM | IC50 (MNK1): 797 nM

NC1CCN(Cc2ccc3cncc(-c4ccc5cccnc5c4)c3c2)CC1 [Example 196]
IC50 [1]: 20400 nM | IC50 (MNK1): 331 nM

NC1CCN(Cc2ccc3cncc(-c4ccc(Cl)cc4Cl)c3c2)CC1 [Example 197]
IC50 [1]: 9860 nM | IC50 (MNK1): 1390 nM

Source: patent publication US20200031811A1, “SUBSTITUTED MONO- AND POLYAZANAPHTHALENE DERIVATIVES AND THEIR USE” (Basilea Pharmaceutica International AG, priority 2015, published 2020)
